# Laboratory results taken from ChEMBL document CHEMBL5291721, “A preclinical secondary pharmacology resource illuminates target-adverse drug reaction associations of marketed drugs” (Nat Commun, 2023).
# *1 amine or outer side, *2 acyl side, *3 side chain or, on linkers, in order; H or OH if unused. Where a SMILES comes first, the peptide text is derived from it. Bridges are numbered along the chain shown (N, C = ends). [ ]: non-standard residue; d: D form. The star is where a group is joined. hTyr(3S-OH,4S-OH,3'-OSO3H) = N[C@H](C(=O)O)[C@H](O)[C@@H](O)c1ccc(O)c(OS(=O)(=O)O)c1; Orn(4R-OH,5R-OH) = O=C([C@H](C[C@@H](O)[C@@H](O)N[*:3])N[*:1])[*:2]; Pro(3S-OH,4S-Me) = C[C@H]1CN[C@H](C(=O)O)[C@H]1O; X1 = CCCCCOc1ccc(-c2cc(-c3ccc(C(=O)*)cc3)no2)cc1; Gln(3R-OH) = NC(=O)C[C@@H](O)[C@H](N)C(=O)O; Hyp = O=C(O)[C@@H]1C[C@@H](O)CN1
# Assays:
# Androgen receptor = biological target: T1, Androgen receptor (Homo sapiens, UniProt P10275)
# T1 sequence (P10275 whole entry): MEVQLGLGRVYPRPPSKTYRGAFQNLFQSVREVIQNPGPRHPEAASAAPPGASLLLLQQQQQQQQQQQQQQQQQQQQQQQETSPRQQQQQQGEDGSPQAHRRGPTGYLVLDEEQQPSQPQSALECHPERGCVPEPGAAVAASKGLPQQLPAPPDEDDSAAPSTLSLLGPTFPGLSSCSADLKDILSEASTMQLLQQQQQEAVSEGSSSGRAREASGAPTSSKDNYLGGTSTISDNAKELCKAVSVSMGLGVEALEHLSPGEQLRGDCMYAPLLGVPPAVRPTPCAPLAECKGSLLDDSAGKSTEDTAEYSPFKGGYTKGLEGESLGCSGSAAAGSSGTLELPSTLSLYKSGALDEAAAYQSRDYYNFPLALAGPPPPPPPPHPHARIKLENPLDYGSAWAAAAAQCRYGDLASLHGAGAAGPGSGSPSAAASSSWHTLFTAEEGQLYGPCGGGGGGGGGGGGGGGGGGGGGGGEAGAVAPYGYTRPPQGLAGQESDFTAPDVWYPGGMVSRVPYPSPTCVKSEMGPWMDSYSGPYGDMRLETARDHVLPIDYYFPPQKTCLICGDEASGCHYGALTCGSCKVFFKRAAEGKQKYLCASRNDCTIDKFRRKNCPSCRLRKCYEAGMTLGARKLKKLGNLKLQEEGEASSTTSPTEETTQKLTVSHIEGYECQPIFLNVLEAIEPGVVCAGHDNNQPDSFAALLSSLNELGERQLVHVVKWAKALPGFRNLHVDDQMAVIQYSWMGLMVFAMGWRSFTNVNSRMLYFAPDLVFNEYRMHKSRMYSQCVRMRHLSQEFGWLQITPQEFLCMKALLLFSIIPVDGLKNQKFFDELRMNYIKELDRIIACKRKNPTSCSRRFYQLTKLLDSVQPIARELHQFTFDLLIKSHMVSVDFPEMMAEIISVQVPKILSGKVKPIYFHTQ
# Acetylcholinesterase = Acetylcholinesterase (Homo sapiens, UniProt P22303); assay type: functional
# Acetylcholinesterase, sequence (P22303 whole entry): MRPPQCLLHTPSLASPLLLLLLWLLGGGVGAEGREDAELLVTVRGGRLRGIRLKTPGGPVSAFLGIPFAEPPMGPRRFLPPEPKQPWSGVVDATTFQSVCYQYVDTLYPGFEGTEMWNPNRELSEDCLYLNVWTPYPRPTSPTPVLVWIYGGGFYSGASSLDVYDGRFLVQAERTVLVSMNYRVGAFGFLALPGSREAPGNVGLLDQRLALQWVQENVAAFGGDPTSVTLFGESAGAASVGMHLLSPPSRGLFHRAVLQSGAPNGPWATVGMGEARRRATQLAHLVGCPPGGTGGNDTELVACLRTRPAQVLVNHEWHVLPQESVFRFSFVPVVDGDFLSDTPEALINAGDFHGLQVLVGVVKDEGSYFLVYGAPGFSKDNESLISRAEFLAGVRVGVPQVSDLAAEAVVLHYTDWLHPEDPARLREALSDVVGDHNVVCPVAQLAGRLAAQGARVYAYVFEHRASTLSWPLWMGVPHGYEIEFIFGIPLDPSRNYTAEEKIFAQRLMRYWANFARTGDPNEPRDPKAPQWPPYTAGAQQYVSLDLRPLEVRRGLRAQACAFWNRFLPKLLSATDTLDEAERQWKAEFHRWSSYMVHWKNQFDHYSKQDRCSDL
# D(4) dopamine receptor = biological target: T2, D(4) dopamine receptor (Homo sapiens, UniProt P21917)
# T2 sequence (P21917 whole entry): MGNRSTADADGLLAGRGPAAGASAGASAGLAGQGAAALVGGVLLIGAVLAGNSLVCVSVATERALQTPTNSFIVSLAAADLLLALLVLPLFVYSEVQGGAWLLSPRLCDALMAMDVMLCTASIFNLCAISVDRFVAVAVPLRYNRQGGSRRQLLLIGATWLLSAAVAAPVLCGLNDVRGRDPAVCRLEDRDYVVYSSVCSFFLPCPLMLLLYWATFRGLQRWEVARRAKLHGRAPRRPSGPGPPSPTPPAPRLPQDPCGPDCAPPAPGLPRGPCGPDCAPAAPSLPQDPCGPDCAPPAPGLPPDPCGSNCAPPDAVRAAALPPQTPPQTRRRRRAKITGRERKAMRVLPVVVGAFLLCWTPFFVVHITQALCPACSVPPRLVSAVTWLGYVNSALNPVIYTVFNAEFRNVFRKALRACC
# Estrogen receptor beta = Estrogen receptor beta (Homo sapiens, UniProt Q92731)
# Estrogen receptor beta, sequence (Q92731 whole entry): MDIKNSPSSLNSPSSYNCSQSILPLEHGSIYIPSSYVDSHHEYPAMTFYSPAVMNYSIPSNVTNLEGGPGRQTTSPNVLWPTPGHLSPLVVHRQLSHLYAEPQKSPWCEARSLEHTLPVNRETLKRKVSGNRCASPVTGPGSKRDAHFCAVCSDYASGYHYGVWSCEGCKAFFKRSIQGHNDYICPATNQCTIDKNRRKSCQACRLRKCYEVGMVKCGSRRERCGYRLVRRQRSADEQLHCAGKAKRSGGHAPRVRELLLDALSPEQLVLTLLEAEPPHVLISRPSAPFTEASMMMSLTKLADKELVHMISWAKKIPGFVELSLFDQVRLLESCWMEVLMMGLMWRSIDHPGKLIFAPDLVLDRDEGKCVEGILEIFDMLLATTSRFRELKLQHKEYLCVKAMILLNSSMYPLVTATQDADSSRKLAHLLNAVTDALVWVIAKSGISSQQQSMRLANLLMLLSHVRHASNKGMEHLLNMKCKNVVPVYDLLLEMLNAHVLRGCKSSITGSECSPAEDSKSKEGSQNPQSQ
# [1] = biological target: 5-hydroxytryptamine receptor 6 (Homo sapiens, UniProt P50406)
# 5-hydroxytryptamine receptor 6, sequence (P50406 whole entry): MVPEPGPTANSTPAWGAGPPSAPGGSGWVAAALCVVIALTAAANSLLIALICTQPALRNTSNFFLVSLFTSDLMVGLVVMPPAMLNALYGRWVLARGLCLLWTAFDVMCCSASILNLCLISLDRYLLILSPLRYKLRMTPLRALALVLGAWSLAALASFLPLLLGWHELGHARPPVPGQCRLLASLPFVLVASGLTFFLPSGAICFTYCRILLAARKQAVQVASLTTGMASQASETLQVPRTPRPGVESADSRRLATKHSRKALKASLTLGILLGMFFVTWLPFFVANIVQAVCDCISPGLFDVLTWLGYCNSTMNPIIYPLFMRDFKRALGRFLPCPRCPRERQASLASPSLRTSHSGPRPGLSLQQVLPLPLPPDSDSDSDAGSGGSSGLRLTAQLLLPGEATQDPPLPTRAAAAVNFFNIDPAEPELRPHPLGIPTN
# [2] = biological target: 5-hydroxytryptamine receptor 7 (Homo sapiens, UniProt P34969)
# 5-hydroxytryptamine receptor 7, sequence (P34969 whole entry): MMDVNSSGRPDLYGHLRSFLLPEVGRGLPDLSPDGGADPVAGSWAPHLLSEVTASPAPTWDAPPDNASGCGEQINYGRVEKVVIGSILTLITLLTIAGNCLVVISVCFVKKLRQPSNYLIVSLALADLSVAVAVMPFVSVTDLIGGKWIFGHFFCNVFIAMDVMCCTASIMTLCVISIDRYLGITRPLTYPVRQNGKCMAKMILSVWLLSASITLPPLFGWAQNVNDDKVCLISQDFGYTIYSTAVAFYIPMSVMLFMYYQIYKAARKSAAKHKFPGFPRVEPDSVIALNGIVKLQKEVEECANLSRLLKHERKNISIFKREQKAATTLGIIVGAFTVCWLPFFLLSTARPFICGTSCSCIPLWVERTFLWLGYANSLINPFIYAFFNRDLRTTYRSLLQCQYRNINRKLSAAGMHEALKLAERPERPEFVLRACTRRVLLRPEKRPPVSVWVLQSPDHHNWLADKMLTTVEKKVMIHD
# Substance-P receptor = Substance-P receptor (Homo sapiens, UniProt P25103)
# Substance-P receptor, sequence (P25103 whole entry): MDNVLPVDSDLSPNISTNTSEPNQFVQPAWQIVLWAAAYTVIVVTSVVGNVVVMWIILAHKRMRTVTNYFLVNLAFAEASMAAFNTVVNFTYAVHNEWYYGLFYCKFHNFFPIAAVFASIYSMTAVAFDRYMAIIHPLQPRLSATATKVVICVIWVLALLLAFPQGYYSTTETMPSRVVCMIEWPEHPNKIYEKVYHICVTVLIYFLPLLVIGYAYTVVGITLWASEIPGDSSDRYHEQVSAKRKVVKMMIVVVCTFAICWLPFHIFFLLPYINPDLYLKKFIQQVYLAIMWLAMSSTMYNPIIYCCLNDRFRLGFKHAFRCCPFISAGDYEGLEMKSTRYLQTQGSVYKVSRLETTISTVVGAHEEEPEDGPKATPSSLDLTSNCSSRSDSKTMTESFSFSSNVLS
# [3] = biological target: T3, Alpha-2A adrenergic receptor (Homo sapiens, UniProt P08913)
# T3 sequence (P08913 whole entry): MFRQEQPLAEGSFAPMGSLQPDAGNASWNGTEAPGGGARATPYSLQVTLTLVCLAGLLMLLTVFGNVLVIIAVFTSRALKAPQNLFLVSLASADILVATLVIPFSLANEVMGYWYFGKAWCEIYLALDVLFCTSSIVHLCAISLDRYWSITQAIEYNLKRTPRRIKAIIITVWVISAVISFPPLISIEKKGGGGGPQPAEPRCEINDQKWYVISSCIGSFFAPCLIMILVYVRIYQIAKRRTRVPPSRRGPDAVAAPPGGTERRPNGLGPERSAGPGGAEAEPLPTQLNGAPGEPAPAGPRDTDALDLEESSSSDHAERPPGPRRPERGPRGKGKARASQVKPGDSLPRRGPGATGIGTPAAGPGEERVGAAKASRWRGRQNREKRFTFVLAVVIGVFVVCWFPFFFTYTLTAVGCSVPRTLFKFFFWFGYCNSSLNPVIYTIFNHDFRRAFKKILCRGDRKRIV
# [4] = biological target: T4, Alpha-1A adrenergic receptor (Homo sapiens, UniProt P35348)
# T4 sequence (P35348 whole entry): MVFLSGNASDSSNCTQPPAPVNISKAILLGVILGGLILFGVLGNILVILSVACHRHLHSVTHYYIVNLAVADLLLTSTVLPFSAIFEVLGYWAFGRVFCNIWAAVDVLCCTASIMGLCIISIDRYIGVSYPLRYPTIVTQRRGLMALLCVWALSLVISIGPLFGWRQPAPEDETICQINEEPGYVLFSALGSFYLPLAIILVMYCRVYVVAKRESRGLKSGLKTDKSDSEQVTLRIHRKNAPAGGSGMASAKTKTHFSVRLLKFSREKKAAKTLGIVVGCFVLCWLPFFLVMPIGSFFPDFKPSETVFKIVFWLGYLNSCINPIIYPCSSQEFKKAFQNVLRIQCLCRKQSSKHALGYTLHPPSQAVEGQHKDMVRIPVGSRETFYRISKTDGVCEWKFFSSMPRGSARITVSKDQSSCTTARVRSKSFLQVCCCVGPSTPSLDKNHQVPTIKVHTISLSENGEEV
# Note: assay procedure not described here.
compound,measurement,setting,value
COc1nccnc1NS(=O)(=O)c1ccc(N)cc1,AC50,Androgen receptor,> 30 µM
NC(=O)c1nc(F)c[nH]c1=O,AC50,Androgen receptor,> 30 µM
CC(=N)N1CC[C@H](SC2=C(C(=O)O)N3C(=O)[C@H]([C@@H](C)O)[C@H]3C2)C1,AC50,Acetylcholinesterase,> 300 µM
CN(C)CCCN1C(=O)c2cc([N+](=O)[O-])ccc2Oc2ccccc21,AC50,Androgen receptor,> 30 µM
CC1(C)S[C@@H]2[C@H](NC(=O)[C@H](N)c3ccc(O)cc3)C(=O)N2[C@H]1C(=O)O [AMOXICILLIN],AC50,D(4) dopamine receptor,> 10 µM
same,AC50,Estrogen receptor beta,> 30 µM
same,AC50,[1],> 10 µM
same,AC50,[2],> 10 µM
same,AC50,Substance-P receptor,> 10 µM
same,AC50,[3],> 10 µM
same,AC50,[4],> 10 µM
O=C(O)COc1nn(Cc2ccccc2)c2ccccc12 [BENDAZAC],AC50,Androgen receptor,> 30 µM
CCc1oc2ccccc2c1C(=O)c1cc(Br)c(O)c(Br)c1 [BENZBROMARONE],AC50,[3],> 10 µM
C=C(C)[C@@H]1CCC(C)=C[C@H]1c1c(O)cc(CCCCC)cc1O [CANNABIDIOL],AC50,Acetylcholinesterase,17 µM
[H]/N=C(\N/C(=N/[H])NCCCCCCNC(=N)NC(=N)Nc1ccc(Cl)cc1)Nc1ccc(Cl)cc1 [CHLORHEXIDINE],AC50,[3],> 10 µM
Clc1cccc(Cl)c1N=C1NCCN1 [CLONIDINE],AC50,Substance-P receptor,> 10 µM
COC(=O)[C@H](c1ccccc1Cl)N1CCc2sccc2C1 [CLOPIDOGREL],AC50,D(4) dopamine receptor,> 10 µM
same,AC50,Estrogen receptor beta,> 30 µM
same,AC50,[1],> 10 µM
same,AC50,[2],> 10 µM
same,AC50,Substance-P receptor,> 10 µM
same,AC50,[3],> 10 µM
same,AC50,[4],> 10 µM
CN(CC(=O)O)C(=N)N [CREATINE],AC50,Androgen receptor,> 30 µM
N[C@@H](CSSC[C@H](N)C(=O)O)C(=O)O [CYSTINE],AC50,Androgen receptor,> 30 µM
CN1C[C@H](C(=O)N[C@]2(C)O[C@@]3(O)[C@@H]4CCCN4C(=O)[C@H](Cc4ccccc4)N3C2=O)C[C@@H]2c3cccc4[nH]cc(c34)C[C@H]21 [DIHYDROERGOTAMINE],AC50,Estrogen receptor beta,> 30 µM
C#Cc1cccc(Nc2ncnc3cc(OCCOC)c(OCCOC)cc23)c1 [ERLOTINIB],AC50,Acetylcholinesterase,> 30 µM
C[C@H]1Oc2cc(cnc2N)-c2c(nn(C)c2C#N)CN(C)C(=O)c2ccc(F)cc21 [LORLATINIB],AC50,Acetylcholinesterase,1.8 µM
CC(C)(N)C(=O)N[C@H](Cc1c[nH]c2ccccc12)C(=O)N[C@H](Cc1c[nH]c2ccccc12)NC=O [MACIMORELIN],AC50,Androgen receptor,> 30 µM
C=C1c2c(Cl)ccc(O)c2C(=O)C2=C(O)[C@]3(O)C(=O)C(C(N)=O)=C(O)[C@@H](N(C)C)[C@@H]3[C@@H](O)[C@H]12 [MECLOCYCLINE],AC50,Androgen receptor,> 30 µM
Cc1cnc(NC(=O)C2=C(O)c3ccccc3S(=O)(=O)N2C)s1 [MELOXICAM],AC50,D(4) dopamine receptor,> 10 µM
same,AC50,Estrogen receptor beta,> 30 µM
same,AC50,[1],> 10 µM
same,AC50,[2],> 10 µM
same,AC50,Substance-P receptor,> 10 µM
same,AC50,[3],> 10 µM
same,AC50,[4],> 10 µM
Cc1cc2c(OCC(O)CNC(C)C)cccc2[nH]1 (centres undefined) [MEPINDOLOL],AC50,Androgen receptor,> 30 µM
"CCCCCOc1ccc(-c2cc(-c3ccc(C(=O)N[C@H]4C[C@@H](O)[C@@H](O)NC(=O)[C@@H]5[C@@H](O)[C@@H](C)CN5C(=O)[C@H]([C@H](O)CC(N)=O)NC(=O)[C@H]([C@H](O)[C@@H](O)c5ccc(O)c(OS(=O)(=O)O)c5)NC(=O)[C@@H]5C[C@@H](O)CN5C(=O)[C@H]([C@@H](C)O)NC4=O)cc3)no2)cc1 [MICAFUNGIN] (X1-[Orn(4R-OH,5R-OH)]T[Hyp][hTyr(3S-OH,4S-OH,3'-OSO3H)][Gln(3R-OH)][Pro(3S-OH,4S-Me)]; lactam 1-C)",AC50,Androgen receptor,> 30 µM
CCOc1ccc2ccccc2c1C(=O)N[C@@H]1C(=O)N2[C@@H]1SC(C)(C)[C@@H]2C(=O)O [NAFCILLIN],AC50,Androgen receptor,> 30 µM
CNCCC=C1c2ccccc2CCc2ccccc21 [NORTRIPTYLINE],AC50,[1],0.256 µM
CN(C)c1cc(CNCC(C)(C)C)c(O)c2c1C[C@H]1C[C@H]3[C@H](N(C)C)C(O)=C(C(N)=O)C(=O)[C@@]3(O)C(O)=C1C2=O [OMADACYCLINE],AC50,Androgen receptor,> 30 µM
COc1ccnc(C[S+]([O-])c2nc3ccc(OC(F)F)cc3[nH]2)c1OC (centres undefined) [PANTOPRAZOLE],AC50,D(4) dopamine receptor,> 10 µM
same,AC50,Estrogen receptor beta,> 30 µM
same,AC50,Substance-P receptor,> 10 µM
same,AC50,[3],> 10 µM
same,AC50,[4],> 10 µM
CNC[C@H](O)c1cccc(O)c1 [PHENYLEPHRINE],AC50,D(4) dopamine receptor,> 10 µM
same,AC50,Estrogen receptor beta,> 30 µM
same,AC50,[1],> 10 µM
same,AC50,[2],> 10 µM
same,AC50,Substance-P receptor,> 10 µM
CC(C)[N+](C)(CCOC(=O)C1c2ccccc2Oc2ccccc21)C(C)C [PROPANTHELINE],AC50,Androgen receptor,> 30 µM
CNC(=O)c1cc(Oc2ccc(NC(=O)Nc3ccc(Cl)c(C(F)(F)F)c3)c(F)c2)ccn1 [REGORAFENIB],AC50,Androgen receptor,> 30 µM
CN(C)C(=O)c1nc(CNC(=O)CN)n(-c2ccc(Cl)cc2C(=O)c2ccccc2Cl)n1 [RILMAZAFONE],AC50,Androgen receptor,> 30 µM
CCCN(CCc1cccs1)[C@H]1CCc2c(O)cccc2C1 [ROTIGOTINE],AC50,Acetylcholinesterase,26 µM
CC[C@H]1OC(=O)[C@H](C)[C@@H](O[C@H]2C[C@@](C)(OC)[C@@H](O)[C@H](C)O2)[C@H](C)[C@@H](O[C@@H]2O[C@H](C)C[C@H](N(C)C)[C@H]2O)[C@](C)(O)C[C@@H](C)/C(=N\OCOCCOC)[C@H](C)[C@@H](O)[C@]1(C)O [ROXITHROMYCIN],AC50,Acetylcholinesterase,> 30 µM
CC1(C)O[C@@H]2[C@@H](CO[C@@]3(COS(N)(=O)=O)OC(C)(C)O[C@@H]23)O1 [TOPIRAMATE],AC50,D(4) dopamine receptor,> 10 µM
same,AC50,Estrogen receptor beta,> 30 µM
same,AC50,[1],> 10 µM
same,AC50,[2],> 10 µM
same,AC50,Substance-P receptor,> 10 µM
same,AC50,[3],> 10 µM
same,AC50,[4],> 10 µM
